This is an account of results in US20240103005A1, “N-ACRYLOYLINDOLES AND METHODS OF USE” (The University of Hong Kong, priority 2022, published 2024).

The test system of test [1] is HepG2 cell lysates. In words: Gel-based ABPP, in vitro Cys labeling of HepG2 cell lysates (in-gel fluorescence). Type of test: biochemical. How it is done: In-Gel Fluorescence for Visualizing Cys Labeling by NAIAs and IAA In Vitro
HepG2 or 231MFP cells were lysed by probe sonication in DPBS, and cell debris were removed by centrifugation at 1,000 g for 5 min. Protein concentration of the lysates was determined by bicinchoninic acid (BCA) assay, and the lysates were then diluted to 2 mg/mL by DPBS. 50 μL of the lysates were incubated with indicated concentrations of NAIA-4, NAIA-5 or IAA for indicated time interval at room temperature. […] Samples were then separated by molecular weight on precast 4-20% TGX gels (Thermo Scientific) and scanned by ChemiDoc MP (Bio-Rad Laboratories, Inc) for measuring in-gel fluorescence. […]
With the in vitro characterization data in hand, we next moved to investigate the ability of NAIA in labeling functional cysteines in cell lysates and live cells. […] After the reaction, the protein mixture was resolved by sodium dodecyl sulphate-polyacrylamide gel electrophoresis (SDS-PAGE) and in-gel fluorescence was measured. […] The fluorescence intensity from these labeled protein bands can then reflect the degree of cysteine labeling by the probes. […]

Test [2] concerns HepG2 cells. In words: Gel-based ABPP, Cys labeling in live HepG2 cells. Conditions: 10 μM, three incubation time intervals. Type of test: cell-based. How it is done:
In-Gel Fluorescence for Visualizing Cys Labeling by NAIAs and IAA in Live Cells
231MFP or HepG2 cells were grown in 10-cm plates in complete medium. At ca. 80% confluency, the cells were treated with DMSO solvent control, NAIA-4, NAIA-5, or IAA at indicated concentrations in complete medium for indicated time interval. The cells were then washed by DPBS and lysed by probe sonication in DPBS. Cell debris were removed by centrifugation at 1,000 g for 5 min. Protein concentration of the lysates was determined by BCA assay, and the lysates were diluted to 2 mg/mL by DPBS. 50 μL of the lysates were labeled with azide-fluor 545 by CuAAC according to the procedures described above. The samples were then added with 4× reducing Laemmli SDS sample loading buffer, boiled at 90° C. for 5 min, and separated by molecular weight on precast 4-20% TGX gels and scanned by ChemiDoc MP for measuring in-gel fluorescence. After that, the gel was stained with SimplyBlue™ SafeStain as described above, washed and scanned by ChemiDoc MP for imaging the blue staining.
In view of the success in labeling cysteines in cell lysates, we then proceeded to apply NAIA for capturing reactive cysteines in live cells. […] After protein assay and normalization, the protein samples were subjected to click reaction with azide-fluor 545, followed by SDS-PAGE and in-gel fluorescence measurement. […]

As to `C#CCCCCNC(=O)COc1ccc2c(ccn2C(=O)C=C)c1` [NAIA-5], the “cysteine labeling (in-gel fluorescence) compared with IAA, time-dependent” value in test [1] (1 and 10 μM, 15 and 30 min) is “more cysteine labeling by NAIA-5 than IAA was found at 1 and 10 μM for both 15 and 30 min incubation”. The “cysteine labeling (in-gel fluorescence) compared with IAA” value in test [1] (1 h incubation, three doses) is recorded as “more cysteine labeling than IAA at all the three doses tested”. Moreover, the “cysteine labeling in live cells (in-gel fluorescence) compared with IAA” value in test [2] was “better cysteine labeling than IAA at 10 μM for all the three incubation time intervals”.
